# From US10165778B2, “Method for controlling pests in soybean” (BASF SE, priority 2014, dated 2019)
# Where two headings read alike, the source gives them in different places.
# Legend:
# Assay type in all cases: in vivo
# [1] = system: Green Soldier Stink Bug (Nezara viridula); assay: B.7 soil drench on lima bean plants, 2nd instar nymphs; conditions: read-out: mortality in comparison with untreated controls
# Description: B.7 Green Soldier Stink Bug (Nezara viridula)
# Lima Bean (Phaseolus lunatus, ‘Henderson Bush,’ Lot #—VR06650) plants were transplanted at the two true-leaf stage into 25.8 cm^2 pots filled with sifted (No. 10 sieve) North Carolina loamy sand soil. Pots were held in the greenhouse and watered daily until treatment. Three days after transplant, the compounds were dissolved in acetone and then diluted with water for a final concentration of 50% acetone. Treatments were applied as a drench in 1 ml solution per plant. Plants were held in an environmental chamber (25±2° C., 24 L) and watered as needed for the duration of the test.
# Three days after treatment, plants were infested with five 2nd instar nymphs. Plants were covered with organza fabric bags to prevent escape. Four days after infestation, the number of live nymphs on each plant was recorded, and means were calculated for each treatment. The percent control was calculated as the percent mortality relative to the solvent blank.
# [2] = system: Brown Stink Bug (Euschistus heros); assay: B.3 bean pod spray test, adults; conditions: 120 h, read-out: mortality in comparison with untreated controls
# Description: B.3 Brown Stink Bug (Euschistus heros)
# (§1) The active compound is dissolved at the desired concentration in a mixture of 1:1 (vol:vol) distilled water:acetone.
# Fresh bean pods were placed in a transparent plastic cup and inoculated with ten adult stage individuals. Insects, food and inside of container are sprayed with 1 ml solution using an air brush. Treated cups were kept at about 25° C. Percent mortality was recorded after 5 days.
# [3] = system: Brown Stink Bug (Euschistus heros); assay: B.6 sprayed soybean seedlings (Intacta and BMX-Potencia), adults; conditions: for mortality at 10 ppm: Euschistus heros; for mortality at 10 ppm / mortality (%) 1 D.A.A / mortality (%) 2 DAA / mortality (%) 6 DAA / mortality (Abbott %) 1 D.A.A / mortality (Abbott %) 2 DAA / mortality (Abbott %) 6 DAA: Ginkgolide A 100 ppm a.i, Bilobalide 10 ppm a.i; for efficacy on soybean plants with Bacillus thuringiensis toxin trait (INTACTA) versus without (BMX-POTENCIA): comparison of INTACTA with BMX-POTENCIA
# Description: B.6 Brown Stink Bug (Euschistus heros)
# as §1
# Soybean seedlings of Intacta and BMX-Potencia with one pair of true leaves were sprayed with 2 ml solution using an airbrush. After dry, the plants in small pots were placed inside a transparent plastic cage and infested with 10 adults adult stage individuals. Treated cups were kept at about 25° C. Percent mortality was recorded after 1, 2, and 6 days after application.
# • Corrected mortality according to Abbott, W. S., A method of computing the effectiveness of an insecticide, J. Econ. Entomal., 18 (1925) 265-267.
# [4] = system: Forest Shield Bug (Eysarcoris aeneus); assay: B.4 peanut and soybean seed spray test, adults; conditions: 120 h, read-out: mortality in comparison with untreated controls
# Description: B.4 Forest Shield Bug (Eysarcoris aeneus)
# as §1
# Row peanuts and soybean seeds were placed in a plastic cup and inoculated with ten adult stage individuals. Insects, food and inside of container are sprayed with 1 ml solution using an air brush. After drying, a water supply source will be placed in the cup and the cup closed with a screened lid. Treated cups were kept at about 20° C. Percent mortality was recorded after 5 days.
# [5] = system: Rice Leaf Bug (Trigonotylus caelestialium); assay: B.5 sprayed wheat seedling test, 2nd and 3rd stage nymphs; conditions: 120 h, read-out: mortality in comparison with untreated controls
# Description: B.5 Rice Leaf Bug (Trigonotylus caelestialium)
# as §1
# Small wheat seedlings in glass tubes were sprayed with 200 microliter/tube by air brush. After drying, ten 2nd and 3rd nymph stage individuals were released in the tube and the tube closed with a screened lid. Treated cups were kept at about 20° C. Percent mortality was recorded after 5 days.
# [6] = system: Orchid Thrips (Dichromothrips corbetti); assay: B.2 floral-immersion test on orchid petals, adult thrips; conditions: 72 h, read-out: mortality in comparison with untreated controls
# Description: B.2 Orchid Thrips (Dichromothrips corbetti)
# Dichromothrips corbetti adults used for bioassay were obtained from a colony maintained continuously under laboratory conditions. For testing purposes, the test compound is diluted in a 1:1 mixture of acetone:water (vol:vol), plus Kinetic HV at a rate of 0.01% v/v.
# Thrips potency of each compound was evaluated by using a floral-immersion technique. All petals of individual, intact orchid flowers were dipped into treatment solution and allowed to dry in Petri dishes. Treated petals were placed into individual re-sealable plastic along with about 20 adult thrips. All test arenas were held under continuous light and a temperature of about 28° C. for duration of the assay. After 3 days, the numbers of live thrips were counted on each petal. The percent mortality was recorded 72 hours after treatment.
# [7] = system: Green Soldier Stink Bug (Nezara viridula); assay: B.1 soybean pod spray test, 3rd instar nymphs; conditions: 120 h, read-out: mortality in comparison with untreated controls
# Description: B.1 Green Soldier Stink Bug (Nezara viridula)
# The active compound is dissolved at the desired concentration in a mixture of 1:1 (vol:vol) distilled water:acetone. Surfactant (Kinetic HV) is added at a rate of 0.01% (vol/vol). The test solution is prepared at the day of use.
# Soybean pods were placed in microwavable plastic cups lined with moist filter paper and inoculated with ten 3rd instar N. viridula. Using a hand atomizer, approximately 2 ml solution is sprayed into each cup. Treated cups were kept at about 28-29° C. and relative humidity of about 50-60%. Percent mortality was recorded after 5 days.
# [8] = system: Green Soldier Stink Bug (Nezara viridula); assay: B.8 lima bean seed treatment, 2nd instar nymphs; conditions: 0.063 mg ai/seed, infested ten days after treatment, read four days after infestation
# Description: B.8 Green Soldier Stink Bug (Nezara viridula)
# Pots (25.8 cm^2) were filled with a 1:1 mixture of sifted (No. 10 sieve) North Carolina loamy sand soil and play sand. Technical material was dissolved in DMSO in a 20 ml scintillation vial. A total application volume of 25 μl of solution was added to a 20 ml vial, ten lima bean seeds (P. lunatus) were added, and the vial was vortexed for 1 minute. Seeds were allowed to dry and planted at a depth of 2 cm later the same day. One seed was planted per pot. Pots were held in the greenhouse and watered daily until infestation.
# Ten days after treatment, plants were infested with five 2nd instar nymphs. Plants were covered with organza fabric bags to prevent escape. Plants were held in an environmental chamber (25±2° C., 24 L) and watered as needed.
# Four days after infestation, the number of live nymphs on each plant was recorded, and means were calculated for each treatment. The percent control was calculated as the percent mortality relative to the solvent blank.
smiles,measurement,setting,value
"CC(C)(C)[C@]1(O)C[C@@H]2OC(=O)C[C@@]23C(=O)O[C@@H]2OC(=O)[C@H](O)[C@]213 [Bilobalide, (3aS,5aR,8aS,9R,10aR)-9-tert-butyl-8,9-dihydroxydihydro-9H-furo[2,3-b]furo[3′,2′;2,3]cyclopenta[1,2-c]furan-2,4,7(3H,8H)-trione]",mortality at 300 g/ha,[1],≥ 75%
same,mortality at 100 ppm,[2],≥ 75%
same,mortality at 10 ppm,"[3]; 24 h, read-out: mortality (%) 1 D.A.A, BMX - POTENCIA soybean, 1 day after application",5%
same,mortality at 10 ppm,"[3]; 24 h, read-out: mortality (%) 1 D.A.A, INTACTA soybean, 1 day after application",7.5%
same,mortality at 10 ppm,"[3]; 24 h, read-out: mortality (Abbott %) 1 D.A.A, BMX - POTENCIA soybean, corrected according to Abbott, 1 day after application",2.6%
same,mortality at 10 ppm,"[3]; 24 h, read-out: mortality (Abbott %) 1 D.A.A, INTACTA soybean, corrected according to Abbott, 1 day after application",2.6%
same,mortality at 10 ppm,"[3]; 48 h, read-out: mortality (%) 2 DAA, BMX - POTENCIA soybean, 2 days after application",7.5%
same,mortality at 10 ppm,"[3]; 48 h, read-out: mortality (%) 2 DAA, INTACTA soybean, 2 days after application",20%
same,mortality at 10 ppm,"[3]; 48 h, read-out: mortality (Abbott %) 2 DAA, BMX - POTENCIA soybean, corrected according to Abbott, 2 days after application",2.6%
same,mortality at 10 ppm,"[3]; 48 h, read-out: mortality (Abbott %) 2 DAA, INTACTA soybean, corrected according to Abbott, 2 days after application",15.8%
same,mortality at 10 ppm,"[3]; 144 h, read-out: mortality (%) 6 DAA, BMX - POTENCIA soybean, 6 days after application",60%
same,mortality at 10 ppm,"[3]; 144 h, read-out: mortality (%) 6 DAA, INTACTA soybean, 6 days after application",72.5%
same,mortality at 10 ppm,"[3]; 144 h, read-out: mortality (Abbott %) 6 DAA, BMX - POTENCIA soybean, corrected according to Abbott, 6 days after application",50%
same,mortality at 10 ppm,"[3]; 144 h, read-out: mortality (Abbott %) 6 DAA, INTACTA soybean, corrected according to Abbott, 6 days after application",65.6%
same,efficacy on soybean plants with Bacillus thuringiensis toxin trait (INTACTA) versus without (BMX-POTENCIA),[3],higher efficacy
same,mortality at 100 ppm,[4],≥ 75%
same,mortality at 100 ppm,[5],≥ 75%
same,mortality at 500 ppm,[6],≥ 75%
same,mortality at 10 ppm,[7],≥ 75%
same,mortality at 100 ppm,[7],≥ 75%
same,mortality at 300 ppm,[7],≥ 75%
same,mortality at 500 ppm,[7],≥ 75%
C[C@@H]1C(=O)O[C@H]2C[C@@]34[C@H]5C[C@@H](C(C)(C)C)[C@]36[C@@H](OC(=O)[C@@H]6O)O[C@@]4(C(=O)O5)[C@]21O [Ginkgolide A],mortality in comparison with untreated controls,[8],at least 75%
same,mortality (%) 1 D.A.A,"[3]; BMX - POTENCIA soybean, 1 day after application",10.0%
same,mortality (%) 2 DAA,"[3]; BMX - POTENCIA soybean, 2 days after application",10.0%
same,mortality (%) 6 DAA,"[3]; BMX - POTENCIA soybean, 6 days after application",57.5%
same,mortality (Abbott %) 1 D.A.A,"[3]; BMX - POTENCIA soybean, corrected according to Abbott, 1 day after application",7.7%
same,mortality (Abbott %) 2 DAA,"[3]; BMX - POTENCIA soybean, corrected according to Abbott, 2 days after application",5.3%
same,mortality (Abbott %) 6 DAA,"[3]; BMX - POTENCIA soybean, corrected according to Abbott, 6 days after application",46.9%
same,mortality (%) 1 D.A.A,"[3]; INTACTA soybean, 1 day after application",12.5%
same,mortality (%) 2 DAA,"[3]; INTACTA soybean, 2 days after application",20.0%
same,mortality (%) 6 DAA,"[3]; INTACTA soybean, 6 days after application",62.5%
same,mortality (Abbott %) 1 D.A.A,"[3]; INTACTA soybean, corrected according to Abbott, 1 day after application",7.9%
same,mortality (Abbott %) 2 DAA,"[3]; INTACTA soybean, corrected according to Abbott, 2 days after application",15.8%
same,mortality (Abbott %) 6 DAA,"[3]; INTACTA soybean, corrected according to Abbott, 6 days after application",53.1%
same,efficacy on soybean plants with Bacillus thuringiensis toxin trait (INTACTA) versus without (BMX-POTENCIA),[3],higher efficacy
